# According to patent publication US9765061B2, “Trail enhancers for the selective killing of cancer cells” (The Scripps Research Institute, priority 2013, dated 2017):
# Legend:
# [1] = test system: primary human hepatocytes; assay: Viability and apoptosis of primary human hepatocytes from normal donors; type: cell-based
# Protocol: FIG. 8: Safety and pro-apoptotic. activity of (C12). Cells were incubated with TRAIL, (C12), […] (Bor) or a combination of TRAIL and (C12) or Bor as indicated, and cell viability (top panels) or the cleavage of PARP (bottom panels) was determined. (A) Lung cancer cell line A549. (B) Primary human hepatocytes from normal donor.
# Therefore, to assess a potential utility of C12 for anti-cancer therapy, we compared the effects of these two compounds—(C12) and bartezomid (Bor)—on TRAIL-mediated apoptosis in cancerous A549 cells and primary human hepatocytes.
# Cancer and normal cell culture. Lung cancer cell line A549 and colon cancer cell line HT29 were purchased from ATCC. Breast cancer cell line MDA-MB-468 was received from J. C. Reed (The Burnham Institute, La Jolla, Calif.). Cell lines were maintained in growth medium (GM): DMEM medium (4.5 g/l glucose) supplemented with 10% FBS (HyClone, Logan, Utah), L-glutamine, penicillin/streptomycin and nonessential ammo acids (Invitrogen, Carlsbad, Calif.). Normal human bronchial epithelial (NHBE) cells and normal human mammary epithelial (NHME) cells were obtained from Cambrex (East Rutherford, N.J.) and cultured as recommended by the manufacturer. Normal human colon smooth muscle cells were obtained from ScienCell Research Lab (San Diego, Calif.) and cultured as recommended by the manufacturer. Primary cultures of human hepatocytes (freshly plated; not cryopreserved) and culture medium were obtained from Celsis In Vitro Technologies (Baltimore, Md.). Upon receipt of the cells, the medium was gently aspirated from each well and replenished with InVitroGRO HI medium supplemented with Torpedo Antibiotic Mix (Celsis), and the plates were kept in a 5% CO2, at 37° C. in an incubator at saturating humidity. After 2-4 h, cells were stimulated as described in the text and FIG. legends.
# (§1) Cytotoxicity was determined by using the XTT-based toxicology assay kit (Sigma, St. Louis, Miss.) in accordance with the manufacturer's instructions. For some experiments, to confirm the apoptotic nature of toxicity, cells were analyzed using protocols and instructions of the Annexin V-FITC apoptosis detection kit (Biovision, Mountain View, Calif.). In addition, caspase 3, 8 and 9 activities were determined by colorimetric assays (R&D System), and the data are expressed as fold increases compared to the values of untreated or control-treated cells (n=5).
# A549 cell line = assay: Viability of A549 cells, XTT-based assay, with or without TRAIL; type: cell-based, human
# Protocol: FIG. 4: C12 sensitizes long cancer cell line A549 to TRAIL. (A) Viability of cells was examined after 24-hour incubation in media containing TRAIL (50 ng/ml), compound (C12) (1 μM), compound (C12R) (25 μM) or the indicated combination of TRAIL (T) with (C12) or (C12R). The chemical structures of (C12) and its stereoisomer (C12R) are shown on the right. (B) Viability of cells was examined after 24-hour incubation in media, containing TRAIL (50 ng/ml) and the indicated doses of C12. Viable cells remaining after the treatment were determined as a function of mitochondrial activity of living cells according to XTT-based toxicology assay kit (Sigma) and are shown as a percentage of viable untreated cells.
# To test this hypothesis, we examined the effect of C12 in vitro on the activity of TRAIL against A549 cell line derived from a cancer sample of the human lung.
# as §1
# cancer and normal cells = assay: XTT-based viability of cancer and normal cells grown 18 h (FIG. 12); type: cell-based; details: TRAIL alone or the same doses of C12 without TRAIL
# Protocol: FIG. 12. (C12) promotes the TRAIL-mediated killing of cancer cells, a), c) Western blot analysis of PARP cleavage in cancer or normal cells treated for 3 h with TRAIL, (C12) or a combination of both, as indicated, b), d) XTT-based assay monitoring the viability of cancer and normal cells grown for 18 h in media containing TRAIL and the indicated doses of (C12). Cell survival was ˜100% in control samples (untreated cells) as well as in samples incubated with TRAIL alone or the same doses of (C12) without TRAIL.
# Cancer and normal cell culture. Lung cancer cell line A549 and colon cancer cell line HT29 were purchased from ATCC. Breast cancer cell line MDA-MB-468 was received from J. C. Reed (The Burnham Institute, La Jolla, Calif.). […]
# as §1
# cancerous cells = assay: Sensitization of cancerous cells to TRAIL-mediated apoptosis (SAR panel); type: cell-based; details: a number of cancerous cells
# Description: Since (C12) is a prototypic member of the 3-oxo-AHL family, the structure-activity-relation (SAR) investigations were warranted to determine generic structural features of AHL, which are required for a cancer-stop and cancer preventing activity as well as for activation of the UPR. To address this questions, a set of AHLs and their analogs were synthesized (see List of AHLs and analogs), and the biological activity of ail compounds were examined on a panel of cancerous and normal cells. The prototypic examples of biochemical data for the selected analogs are shown in FIG. 9 and FIG. 10, whereas Table 2 summarizes the SAR studies for all compounds.
# (§2) Cell stimulation. In all experiments, BMDM were stimulated with LPS (100 ng/ml), AHL (10-25 μM; usually BMDM and primary macrophages were stimulated by 25 μM of C12) or their combination as indicated in the figure legends. If not indicated, cancer and normal cells were stimulated with 40 ng/ml of TNFα, 20 ng/ml TRAIL and 10 μM (in case of cancer cells) or 25 μM (in case of normal cells) of AHL.
# [2] = test system: bone marrow-derived macrophages (BMDM); assay: Responses of bone marrow-derived macrophages to AHLs (toxicity, Western blot); type: cell-based, mouse
# Protocol: FIG. 13. AHL-mediated inhibition of inflammation-induced NF-κB signaling is sufficient for rendering tumors susceptible to TRAIL-induced apoptosis. a) Western blot analysis of PARP cleavage in cancer cells stimulated for 3 h with TRAIL or its combination with different AHLs as indicated, b) Western blot analysis of PARP cleavage as well as phosphorylated forms of eIF2α and p38 in extracts from bone marrow-derived macrophages (BMDM) stimulated with (C12) or (3-N2), i.e., (S)-(3-N2), as indicated, c) Western blot analysis of PARP cleavage and temporal profiles of IκBα expression in BMDM extracts prepared after treatment with LPS or its combination with (C12) or (3-N2). d) Inhibitory effect of (C12) and its derivatives on LPS-induced TNF production in BMDM. e) Lung cancer cells were exposed to (3-N2) (10 μM), TRAIL (0.5 ng/ml), TNF (20 ng/ml) or their combinations as indicated. After 2 h, cell lysates were prepared and analyzed by Western blot for PARP cleavage, IκBα and actin.
# Mice, bone marrow-derived macrophages and other cell culture, C57BL/6 mice were purchased from the Jackson Laboratory (Bar Harbor, Me.). Bone marrow-derived macrophages (BMDM) and murine embryonic fibroblasts (MEF) were prepared by using standard protocols that were approved by the TSRI Animal Care and Use Committee. L929/NCTC clone 929 (connective tissue, mouse) cell lines were purchased from ATCC (Manassas, Va.). MEFs and L929 cell line were maintained in GM (see above). BMDM were cultured in 70% GM and 30% L929 conditioned medium. In general, cells (˜60-70% confluence) were incubated in fresh medium for 12-14 h before stimulation.
# Antibodies and Western blot analysis. Anti-eIF2α, phospho-eIF2α[…](p-eIF2α), p38, p-p38 (Thr180/Tyr132), p-RelA (Ser536), p-I κB ? 32/36), PARP 20 antibodies were purchased from Cell Signaling; anti-RelA, I κB α, IκBβ were from Santa Cruz Biotechnology. Cellular extracts were prepared and analyzed by Western blot assay as previously described.^E3
# as §2
# [3] = test system: TRAIL-treated lung cancer cells; assay: Toxicity against TRAIL-treated lung cancer cells; type: cell-based
# Protocol: Considering the potential inherent pharmacokinetic liabilities associated with C12, a small series of compound (C12) analogues was tested against bone marrow-derived macrophages and TRAIL-treated lung cancer cells.
# Cancer and normal cell culture. Lung cancer cell line A549 and colon cancer cell line HT29 were purchased from ATCC. Breast cancer cell line MDA-MB-468 was received from J. C. Reed (The Burnham Institute, La Jolla, Calif.). Cell lines were maintained in growth medium (GM): DMEM medium (4.5 g/l glucose) supplemented with 10% FBS (HyClone, Logan, Utah), L-glutamine, penicillin/streptomycin and nonessential ammo acids (Invitrogen, Carlsbad, Calif.). […]
# as §1
# sXBP1 (UPR) = assay: RT-PCR assay of spliced XBP1 mRNA (sXBP1) in macrophages; type: cell-based, mouse; details: FIG. 1D and 1E
# Description: FIG. 1: C12 induces the UPR in mammalian cells. (A and B). Comparison of the macrophage responsiveness to P. aeruginosa (P.a.), S. typhimurium (S.t), and S. aureus (S.a.). RT-PCR assay of XBP1 (A) and Western blot analysis (B) of p38, its phosphorylated form (p-p38) as well as phosphorylated forms of PERK (p-PERK) and eIF2α (p-eIF2α) in cell extracts after treatment with bacteria are shown. (C) Macrophages were stimulated with P. aeruginosa wild type (wt) or lasI mutant (ΔlasI), and cell extracts (total RNA or total protein) were prepared and analyzed as in (A and B). […] (F) Total RNA was prepared from lung of mice after inoculation of vehicle (-) or (C12) and analyzed in (D). […]
# Among key biochemical signatures of the multicomponent ER stress pathway, known as the unfolded protein response (UPR), are the phosphorylation of the α-subunit of eukaryotic translation initiation factor-2 (eIF2α) and activation of the transcription factor XBP1/Hac1 (X-box binding protein-1 in metazoans and homologous to ATF/CREB in yeast, respectively) ^11. […] To initiate our studies, we exposed bone marrow-derived macrophages (BMDM) to these bacteria, and macrophage responsiveness was analyzed for biochemical markers of the UPR and the phosphorylation of the mitogen-activated protein kinase p38, as a common marker of TLR pathways. […]
compound,measurement,setting,value
"TRAIL: recombinant human tumor necrosis factor-related apoptosis-inducing ligand, purchased from R&D System","viability of normal human hepatocytes, TRAIL alone",[1]; FIG. 8B,unchanged
same,"viability and growth, TRAIL alone",A549 cell line; TRAIL 50 ng/ml,did not significantly affect
same,Cell survival,cancer and normal cells,~100%
CCCCCCCCCC1(CC(=O)N[C@H]2CCOC2=O)N=N1 [Compound 15],"toxicity to human hepatocytes, compound alone or in combination with TRAIL",[1]; hepatocytes from normal donors,non-toxic
same,sensitization of cancerous cells to TRAIL-mediated apoptosis,cancerous cells,strongly sensitize
same,PARP cleavage in macrophages,"[2]; Western blot, FIG. 13b",did not induce
same,eIF2α phosphorylation in macrophages,"[2]; Western blot, FIG. 13b",induced eIF2α phosphorylation in a similar fashion
same,p38 phosphorylation in macrophages,"[2]; Western blot, FIG. 13b",did not induce
same,toxicity to macrophages,[2]; bone marrow-derived macrophages,nontoxic
same,blocking LPS-induced re-synthesis of IκBα,"[2]; macrophages activated by LPS, FIG. 13c",equally effective
same,synergistic effects on TRAIL-induced apoptosis in cancer cells,[3]; compared with bortezomib,comparable with those for an anti-cancer agent bortezomib
same,toxicity against TRAIL-treated cancer cells,[3]; in the presence of TRAIL,exhibited toxicity
CCCCCCCCCC(=O)CC(=O)N[C@@H]1CCOC1=O [Compound 2],induction of sXBP1 / activation of the UPR,sXBP1 (UPR),ineffective
same,"cell growth and viability, compound alone","A549 cell line; C12 1 μM or 25 μM, C12R 25 μM, no TRAIL",practically unchanged
same,"cell growth and viability, combination with TRAIL",A549 cell line; TRAIL (50 ng/ml) and C12R (25 μM),practically unchanged
"CC(C)C[C@H](NC(=O)[C@H](Cc1ccccc1)NC(=O)c1cnccn1)B(O)O [Bor, bortezomib, reference compound]",toxicity and apoptosis in hepatocytes in the presence of TRAIL,[1]; FIG. 8B,substantially enhanced
same,"toxicity toward hepatocytes, drug alone",[1]; FIG. 8B,relatively low levels of toxicity
same,sensitivity of A549 cells to TRAIL in the presence of compound,A549 cell line; FIG. 8A,comparable increase in sensitivity
[N-]=[N+]=NCCCCCCCCCC(=O)CC(=O)N[C@H]1CCOC1=O [Compound 13],sensitization of cancerous cells to TRAIL-mediated apoptosis,cancerous cells,strongly sensitize
[N-]=[N+]=NCCCCCCCCCC1(CC(=O)N[C@H]2CCOC2=O)N=N1 [Compound 16],sensitization of cancerous cells to TRAIL-mediated apoptosis,cancerous cells,strongly sensitize
